Measured values: paper PMC7700248, “Chemical and Biological Study of Novel Aplysiatoxin Derivatives from the Marine Cyanobacterium Lyngbya sp” (Toxins, 2020)
Read-outs that look alike come from different tables or passages of the source.

Tests used:
potassium channel Kv1.5 [1] = molecular target: T1, potassium channel Kv1.5 (Homo sapiens, UniProt P22460); assay: Kv1.5 ion channel inhibitory experiment (whole-cell patch clamp, CHO cells); type: cell-based
T1 construct: expressed in transfected cells; host or cells: Chinese hamster ovary (CHO) cells
T1 sequence (P22460 whole entry): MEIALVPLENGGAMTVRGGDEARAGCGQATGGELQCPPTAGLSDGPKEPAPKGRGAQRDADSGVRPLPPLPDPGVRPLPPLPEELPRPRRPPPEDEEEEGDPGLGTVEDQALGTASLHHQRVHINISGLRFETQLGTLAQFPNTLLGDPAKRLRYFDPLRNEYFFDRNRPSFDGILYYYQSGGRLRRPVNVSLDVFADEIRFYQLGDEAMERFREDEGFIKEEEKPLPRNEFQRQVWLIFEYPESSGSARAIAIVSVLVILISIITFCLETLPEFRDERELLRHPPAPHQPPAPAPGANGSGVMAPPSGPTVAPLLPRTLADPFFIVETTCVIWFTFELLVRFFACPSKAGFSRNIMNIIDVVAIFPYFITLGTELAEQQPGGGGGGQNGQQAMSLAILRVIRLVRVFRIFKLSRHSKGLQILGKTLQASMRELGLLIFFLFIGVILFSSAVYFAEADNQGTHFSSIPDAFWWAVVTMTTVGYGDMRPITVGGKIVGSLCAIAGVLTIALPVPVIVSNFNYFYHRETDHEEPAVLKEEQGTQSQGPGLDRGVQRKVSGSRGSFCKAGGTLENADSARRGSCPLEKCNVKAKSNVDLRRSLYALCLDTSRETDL
Procedure: Cell preparation: the day before the experiment, digestion of Chinese hamster ovary (CHO) cells (Sigma Chemical Co., St. Louis, MO, USA) with a density of 60–80% by trypsin, and split into some small glass plates, which placed in 35 mm petri dish, then added 10% fetal bovine serum (FBS) (Gibco, CA, USA), and Dulbecco’s modified eagle medium (DMEM) (HyClone, Logan, UT, USA) culture medium without P/S was cultured overnight in an incubator [35, 36, 37] (Supplementary Materials 1.3.1).
Electrophysiology: the cells were transferred to a perfusion tank and perfused with extracellular fluid. The intracellular fluid (mM) was: K Aspartate, 130; MgCl2, 5; EGTA 5; HEPES, 10; Tris-ATP 4; pH 7.2 (KOH titration). The intracellular fluid was stored in small portions in a refrigerator at −80 °C and thawed on the day of the experiment. The electrodes were filled with intracellular fluid and drawn with PC-10 (Narishige, Japan). Whole-cell patch-clamp recording, noise is filtered using one-fifth of the sampling frequency. The cells were clamped at −80 mV and then depolarized to 20 mV with a square wave lasting 2 s to obtain Kv1.5 current. This procedure is repeated every 20 s. After it was stabilized, compound 1, compound 2, and acacetin were perfused, and when the reaction was stabilized, the strength of the blocking was calculated (Supplementary Materials 1.3.1). […]
detection at 190 nm) to afford twenty‐one subfractions (F.D.1‐21). […]
Electrophysiology. […] After it was stabilized, compound 1, compound 2, and acacetin were perfused, and when the reaction was stabilized, the strength of the blocking was calculated.
Data analysis and statistics. […] The IC50 value was determined by fitting the data points to the equation. […]
Figure S1.3.1.1. (A) Kv1.5 traces elicited by 5 s pulses from −80 to + 20 mV and tail currents recorded at −80 mV in the absence and presence of 0.1 μM, 0.3 μM, 1 μM, 3 μM, 10 μM, and 30 μM neo‐ […]

Artemia salina = assay: Brine shrimp toxicity (lethality) assay; type: in vivo; settings: 24 h; for survival at 0.1 µM / survival at 1 µM / survival at 10 µM / survival at 30 µM: Artemia salina, read-out: Percentage of Survival of Artemia salina after 24 h
Procedure: The lethality assay of brine shrimp A. salina was developed by Vanhaecke et al.. […] Commercially available A. salina or brine shrimp cysts were purchased and cultivated in 3.2% of saline water. Before cultivation, the saline was aerated, and then cysts were kept at room temperature for 24 h. For toxicity screening, hatched larvae were collected and introduced in saline water. Add 0.9% saline water and approximately the same number of larvae 30 per well to make a 96-wells test culture plate. ATXs with 0.1 μM, 1 μM, 10 μM, 30 μM were added to the test culture plate, while the equal volume of dimethyl sulfoxide (DMSO) (Aladdin, Shanghai, China) and dichloromethane (Aladdin, Shanghai, China) were added as blank control test and positive control separately. After 24 h at 25 °C, the percent of survival of A. salina was calculated (Supplementary Materials 1.3.2).
Figure S1.3.1.2. […]
Figure S1.3.1.3. […]
1.3.2. Brine Shrimp Cytotoxicity Assay
Commercially available Artemia salina (A. salina) or brine shrimp cysts were purchased and cultivated in 3.2% of saline water. Before cultivation, the saline was aerated, and then cysts were kept at room temperature for 24 h. For toxicity screenin g, hatched larvae were collected and introduced in saline water. Add saline water and equivalent larvae in per well of 96 wells to make test culture plate.
Aplysiatoxins with 0.1 μM, 1 μM, 10 μM, 30 μM was added to test culture plate, while DMSO and dichloromethane were added as blank control test and positive control separately. After 24 h in 25 °C, the percent of survival of A. salina was calculated. […]

potassium channel Kv1.5 [2] = molecular target: T1, potassium channel Kv1.5; settings: read-out: IC50, inhibitory activity against Kv1.5, cited from earlier work
protein kinase C (PKC) = settings: ref [20],[21],[34]; cited from earlier work

Molecule | effect on survival of A. salina (in words) (Artemia salina; 30 µM) | survival at 0.1 µM (Artemia salina) [%] | survival at 1 µM (Artemia salina) [%] | survival at 10 µM (Artemia salina) [%] | survival at 30 µM (Artemia salina) [%] | concentration at which survival of A. salina began to be influenced (Artemia salina) [µM] | further results
COC(CCC(C)C1OC2(C=CC1C)OC(C)(C(=O)CC(=O)OC1CC(=O)OC1C)CC2(C)C)c1cccc(O)c1 (centres unmarked) [Compound 2, neo-debromoaplysiatoxin H] | no apparent effect | 97.3 ± 2.38 | 98.9 ± 1.93 | 97.3 ± 4.62 | 95.5 ± 1.93 |  | IC50 (potassium channel Kv1.5 [1]): 1.46 ± 0.14 µM
COC(CCC(C)C1OC23CC(OC(=O)CC(C(C)O)OC(=O)CC(OC)(O2)C(C)CC3(C)C)C1C)c1cccc(O)c1 (centres unmarked) [3-OCH3 DAT, 3-methoxydebromoaplysaitoxin] |  | 94.5 ± 1.87 | 85.8 ± 6.3 | 0 | 0 | 10 | 
CO[C@@H](CC[C@H](C)[C@H]1O[C@@]23C[C@H](OC(=O)C[C@H]([C@@H](C)O)OC(=O)C[C@](O)(O2)[C@H](C)CC3(C)C)[C@@H]1C)c1cccc(O)c1 [DAT, debromoaplysiatoxin] |  |  |  |  |  | 0.1 | survival at 0.1 µM (Artemia salina; 0.1 µM): 70.9 ± 6.3%; survival at 1 µM (Artemia salina; 1 µM): 0%; survival at 10 µM (Artemia salina; 10 µM): 0%; survival at 30 µM (Artemia salina; 30 µM): 0%; IC50 (potassium channel Kv1.5 [2]; ref [33]): 1.28 ± 0.08 µM; PKC activation (in words) (protein kinase C (PKC)): strong PKC activation
oscillatoxin E [OAT E] |  |  |  |  |  |  | IC50 (potassium channel Kv1.5 [2]; ref [33]): 0.79 ± 0.03 µM
CO[C@@H](CC[C@H](C)[C@H]1O[C@@]23C[C@H](OC(=O)C2=C(O)[C@H](C)CC3(C)C)[C@@H]1C)c1cccc(O)c1 [NEO-B, neo-debromoaplysiatoxin B] |  |  |  |  |  |  | IC50 (potassium channel Kv1.5 [2]; ref [20],[21],[33]): 0.3 ± 0.05 µM
COC(CCC(C)C1OC(=O)C(C)(C)CC(C)=C(CC(=O)OC2CC(=O)OC2C)C(=O)CC1C)c1cccc(O)c1 (centres unmarked) [NEO-C, neo-debromoaplysiatoxin C] |  | 98.7 ± 2.31 | 99 ± 1.65 | 98.9 ± 1.92 | 94.9 ± 5.27 |  | 
COC(CCC(C)C1OC23CC(OC(=O)CC(C(C)O)OC(=O)CC4(CC2(C)CC4(C)O)O3)C1C)c1cccc(O)c1 (centres unmarked) [Compound 1, neo-debromoaplysiatoxin G] | no apparent effect | 98 ± 3.4 | 92.6 ± 1.54 | 92.4 ± 4.71 | 91.8 ± 7.73 |  | IC50 (potassium channel Kv1.5 [1]): 1.79 ± 0.22 µM
COc1ccc(-c2cc(=O)c3c(O)cc(O)cc3o2)cc1 [acacetin] |  |  |  |  |  |  | IC50 (potassium channel Kv1.5 [1]; Kv1.5 expression in CHO cells, holding potential −80 mV, mean ± SEM of 3 to 5 measurements, Hill fit, read-out: IC50, inhibitory effect on Kv1.5 current): 5.96 ± 0.56 µM
COC(CCC(C)C1OC23CC(OC(=O)CC(C(C)O)OC(=O)CC(=C(C)CC2(C)C)O3)C1C)c1cccc(O)c1 (centres unmarked) [Anhydro DAT, anhydrodebromoaplysiatoxin] |  | 94 ± 3.46 | 91.3 ± 6.94 | 0 | 0 | 10 | 
COC(CCC(C)C1OC2(C=CC1C)CC(=O)C(C)CC2(C)C)c1cccc(O)c1 (centres unmarked) [OAT F, osciliatoxin F] | no apparent effect | 97.5 ± 2.2 | 98.8 ± 1.99 | 95.3 ± 1.92 | 85.5 ± 2.91 |  | 
